Laboratory results published in ChEMBL document CHEMBL1201862, “PubChem BioAssay data set” (2004).
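Five concentrations, 48 hours, 96-well plates. GI50 marks 50% less growth.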 Activity calls are given as the source filed them. No stated cut-off is given here; in the data, active = GI50 up to about 1.1 µM and inactive = higher.

Key:
Assay in all cases: inhibition of tumour cell growth, NCI panel, 48 h
786-0 = system: 786-0
A498 = system: A498
A549 = system: A549
ACHN = system: ACHN
BT-549 = system: BT-549
CAKI-1 = system: CAKI-1
CCRF-CEM = system: CCRF-CEM
COLO 205 = system: COLO 205
DU-145 = system: DU-145
EKVX = system: EKVX
HCT-116 = system: HCT-116
HCT-15 = system: HCT-15
HL-60 = system: HL-60
HOP-62 = system: HOP-62
HOP-92 = system: HOP-92
HT-29 = system: HT-29
Hs-578T = system: Hs-578T
IGROV-1 = system: IGROV-1
K562 = system: K562
KM12 = system: KM12
LOX IMVI = system: LOX IMVI
M14 = system: M14
MCF7 = system: MCF7
MDA-MB-231 = system: MDA-MB-231
MDA-MB-435 = system: MDA-MB-435
MDA-N = system: MDA-N
MOLT-4 = system: MOLT-4
NCI-H226 = system: NCI-H226
NCI-H23 = system: NCI-H23
NCI-H460 = system: NCI-H460
NCI-H522 = system: NCI-H522
NCI/ADR-RES = system: NCI/ADR-RES
OVCAR-3 = system: OVCAR-3
OVCAR-4 = system: OVCAR-4
OVCAR-5 = system: OVCAR-5
OVCAR-8 = system: OVCAR-8
PC-3 = system: PC-3
RPMI-8226 = system: RPMI-8226
RXF 393 = system: RXF 393
SF-268 = system: SF-268
SF-295 = system: SF-295
SF-539 = system: SF-539
SK-MEL-28 = system: SK-MEL-28
SK-MEL-2 = system: SK-MEL-2
SK-MEL-5 = system: SK-MEL-5
SK-OV-3 = system: SK-OV-3
SN12C = system: SN12C
SNB-19 = system: SNB-19
SNB-75 = system: SNB-75
SR = system: SR
SW-620 = system: SW-620
T47D = system: T47D
TK-10 = system: TK-10
U-251 = system: U-251
UACC-257 = system: UACC-257
UACC-62 = system: UACC-62
UO-31 = system: UO-31
HCC 2998 = system: HCC 2998
Malme-3M = system: Malme-3M

Measured: GI50

Nc1ccc(S(=O)(=O)NCc2nccs2)cc1
inactive: 786-0 28.3 µM | A498 17.7 µM | A549 27.9 µM | ACHN 23.4 µM | BT-549 20.1 µM | CAKI-1 28.4 µM | CCRF-CEM 18.2 µM | COLO 205 18.4 µM | DU-145 29 µM | EKVX 17.3 µM | HCT-116 19 µM | HL-60 20.4 µM | HOP-62 36.8 µM | HOP-92 18.8 µM | HT-29 16.7 µM | Hs-578T 27.3 µM | IGROV-1 23.4 µM | K562 23.5 µM | KM12 20.9 µM | LOX IMVI 19.9 µM | M14 18.2 µM | MCF7 23.4 µM | MDA-MB-231 24.9 µM | MDA-MB-435 19.6 µM | MDA-N 22.3 µM | MOLT-4 23.2 µM | NCI-H226 22.2 µM | NCI-H23 22.4 µM | NCI-H460 26.5 µM | NCI-H522 16.6 µM | NCI/ADR-RES 23.8 µM | OVCAR-3 34 µM | OVCAR-4 29.3 µM | OVCAR-5 17.9 µM | OVCAR-8 32.7 µM | PC-3 30.1 µM | RPMI-8226 25.8 µM | RXF 393 29.9 µM | SF-268 18.6 µM | SF-295 32 µM | SF-539 19.1 µM | SK-MEL-28 18.1 µM | SK-MEL-2 20 µM | SK-MEL-5 15.8 µM | SK-OV-3 32.3 µM | SN12C 19.2 µM | SNB-19 29.1 µM | SNB-75 23.2 µM | SR 31 µM | SW-620 30.5 µM | T47D 24.1 µM | TK-10 22.2 µM | U-251 21.8 µM | UACC-257 17.7 µM | UACC-62 17.5 µM | UO-31 22.3 µM
26.7 µM: HCT-15

O=C1O[C@H](COC(=O)c2ccccc2)[C@@H](OC(=O)c2ccccc2)C=C1OC(=O)c1ccccc1
inactive: 786-0 18.2 µM | A498 55.7 µM | ACHN 16 µM | BT-549 16.4 µM | CAKI-1 23.8 µM | CCRF-CEM 14.1 µM | COLO 205 19.6 µM | DU-145 36.6 µM | EKVX 17.7 µM | HCC 2998 > 100 µM | HCT-116 17.3 µM | HL-60 10.5 µM | HOP-62 20 µM | HOP-92 21.8 µM | Hs-578T 33 µM | IGROV-1 21.5 µM | K562 24.3 µM | KM12 33.7 µM | LOX IMVI 19.8 µM | M14 17.5 µM | MCF7 28.8 µM | MDA-MB-231 17.5 µM | MDA-MB-435 25 µM | MDA-N 31.7 µM | MOLT-4 23.1 µM | NCI-H226 21.5 µM | NCI-H23 18.1 µM | NCI-H460 16.2 µM | NCI-H522 20.2 µM | NCI/ADR-RES 18.9 µM | OVCAR-3 18.3 µM | OVCAR-4 20.9 µM | OVCAR-5 21 µM | OVCAR-8 21.8 µM | PC-3 25.4 µM | RPMI-8226 29.6 µM | RXF 393 17 µM | SF-268 18.3 µM | SF-295 17.8 µM | SF-539 17.6 µM | SK-MEL-2 23.5 µM | SK-MEL-5 19 µM | SK-OV-3 > 100 µM | SN12C 18.8 µM | SNB-19 18.1 µM | SNB-75 25.8 µM | SR 18.5 µM | SW-620 19 µM | T47D 23.4 µM | TK-10 27.9 µM | U-251 18.2 µM | UACC-257 25.7 µM | UACC-62 20.7 µM | UO-31 30.9 µM
17.7 µM: HCT-15

C=C1C(=O)O[C@H]2C[C@@H]1C(=O)CC(C)CCCC(C)=CCC[C@@]2(C)O (some centres not stated)
> 25 µM: HCT-15
inactive: 786-0 > 25 µM | A498 > 25 µM | A549 > 25 µM | ACHN > 25 µM | BT-549 > 25 µM | CCRF-CEM > 25 µM | COLO 205 > 25 µM | DU-145 > 25 µM | EKVX > 25 µM | HCC 2998 > 25 µM | HCT-116 > 25 µM | HL-60 > 25 µM | HOP-62 > 25 µM | HOP-92 > 25 µM | HT-29 > 25 µM | Hs-578T > 25 µM | IGROV-1 > 25 µM | KM12 > 25 µM | LOX IMVI > 25 µM | M14 > 25 µM | MCF7 > 25 µM | MDA-MB-231 > 25 µM | MDA-MB-435 > 25 µM | MDA-N > 25 µM | MOLT-4 > 25 µM | Malme-3M > 25 µM | NCI-H226 > 25 µM | NCI-H23 > 25 µM | NCI-H460 > 25 µM | NCI-H522 > 25 µM | NCI/ADR-RES > 25 µM | OVCAR-3 > 25 µM | OVCAR-4 > 25 µM | OVCAR-5 > 25 µM | OVCAR-8 > 25 µM | PC-3 > 25 µM | RPMI-8226 > 25 µM | RXF 393 > 25 µM | SF-268 > 25 µM | SF-295 > 25 µM | SF-539 > 25 µM | SK-MEL-28 > 25 µM | SK-MEL-2 > 25 µM | SK-MEL-5 > 25 µM | SK-OV-3 > 25 µM | SN12C > 25 µM | SNB-19 > 25 µM | SR 16.8 µM | SW-620 > 25 µM | T47D > 25 µM | TK-10 > 25 µM | U-251 > 25 µM | UACC-257 > 25 µM | UACC-62 > 25 µM | UO-31 > 25 µM

CN(C)Cc1cc(C(=O)/C=C/c2ccc(O)cc2)cc(CN(C)C)c1O
inactive: 786-0 34.4 µM | A498 31.8 µM | A549 > 100 µM | ACHN 20.9 µM | BT-549 79.4 µM | CAKI-1 28.8 µM | CCRF-CEM 24.8 µM | COLO 205 19.4 µM | DU-145 53.6 µM | EKVX 70 µM | HCC 2998 79.4 µM | HCT-116 38.2 µM | HL-60 19.1 µM | HOP-62 38 µM | HOP-92 30.2 µM | HT-29 79.3 µM | Hs-578T 60.5 µM | IGROV-1 45.4 µM | K562 29.5 µM | KM12 24.4 µM | LOX IMVI 29.7 µM | M14 27.6 µM | MCF7 43.2 µM | MDA-MB-231 25.2 µM | MDA-MB-435 35.4 µM | MDA-N 37.7 µM | MOLT-4 26.7 µM | NCI-H226 > 100 µM | NCI-H23 79.6 µM | NCI-H460 23.7 µM | NCI-H522 23.4 µM | NCI/ADR-RES > 100 µM | OVCAR-3 18.9 µM | OVCAR-5 42.1 µM | OVCAR-8 81.7 µM | PC-3 47.4 µM | RPMI-8226 17.9 µM | RXF 393 59.8 µM | SF-268 72.4 µM | SF-295 86.3 µM | SF-539 55 µM | SK-MEL-28 25.9 µM | SK-MEL-2 30.3 µM | SK-MEL-5 18.5 µM | SN12C 23 µM | SNB-19 > 100 µM | SNB-75 26.7 µM | SR 23.1 µM | SW-620 39.4 µM | T47D 49.9 µM | TK-10 53.7 µM | U-251 16 µM | UACC-257 46.2 µM | UACC-62 36.6 µM | UO-31 63 µM
44.5 µM: HCT-15

CC(C)(C)c1cc(O)ccc1O [E319]
active: SR 1.1 µM | U-251 0.675 µM
inactive: 786-0 > 54.8 µM | A498 > 100 µM | A549 > 100 µM | ACHN > 85.5 µM | BT-549 > 100 µM | CAKI-1 > 57.8 µM | CCRF-CEM 4.92 µM | COLO 205 > 74.6 µM | DU-145 10.1 µM | EKVX > 100 µM | HCC 2998 > 10.5 µM | HCT-116 > 57.9 µM | HL-60 9.73 µM | HOP-62 > 100 µM | HOP-92 > 67.5 µM | HT-29 > 100 µM | Hs-578T > 24 µM | IGROV-1 > 100 µM | K562 > 68.5 µM | KM12 > 100 µM | LOX IMVI > 59.3 µM | M14 > 100 µM | MCF7 > 100 µM | MDA-MB-231 1.86 µM | MDA-MB-435 > 56.8 µM | MDA-N > 100 µM | MOLT-4 10.3 µM | Malme-3M > 19.3 µM | NCI-H226 > 65.5 µM | NCI-H23 > 100 µM | NCI-H460 > 12.8 µM | NCI-H522 5.57 µM | NCI/ADR-RES > 79.6 µM | OVCAR-3 43.6 µM | OVCAR-4 > 56.4 µM | OVCAR-5 > 100 µM | OVCAR-8 > 63.7 µM | PC-3 1.57 µM | RPMI-8226 38.2 µM | SF-268 > 18.7 µM | SF-295 > 100 µM | SF-539 > 100 µM | SK-MEL-28 > 100 µM | SK-MEL-2 1.71 µM | SK-MEL-5 > 100 µM | SK-OV-3 > 100 µM | SN12C > 100 µM | SNB-19 > 100 µM | SNB-75 7.71 µM | SW-620 37.8 µM | T47D 3.83 µM | TK-10 8.32 µM | UACC-257 9.08 µM | UACC-62 > 100 µM | UO-31 > 58.6 µM
> 100 µM: HCT-15
